Reference: patent publication US5574033A, “Heterocyclic compound and cardiotonic agent containing the same as effective component” (Zenyaku Kogyo Kabushiki Kaisha, priority 1991, dated 1996)
Where a name gives a salt, the structure may show the parent alone.

Columns and labels:
[1] = Pharmacological Test 2: acute toxicity, tail vein administration, up-and-down method; conditions: mouse, in vivo, iv, tail vein of ddY mice, in physiological saline solution
Procedure: (§1) Nos. of the compounds in the pharmacological tests 1 and 2 correspond to those in Examples referred to hereinafter.
The acute toxicity was determined by administrating the sample compound, which was dissolved by physiological saline solution, in the tail vein of ddY mice (5-weeks-old, having a body weight of 25 to 28 g) and LD50 was obtained by the up-and-down method.

[2] = tested on: papillary muscles of a right ventricle; experiment: Pharmacological Test 1: contraction of isolated right ventricular papillary muscles upon electric stimulation (inotropic effect); parameters: species or system male Hartley guinea pig; conditions: 3×10^-5 M; percentage of increment of contractile force, isoprotelenol (1×10^-8 M) = 100%; 1 Hz stimulation, 30° C.
Procedure: as §1
(§2) A heart was removed from a male Hartley guinea pig (having a body weight of about 400 g or so) and a right atrium and papillary muscles of a right ventricle were separated from the removed heart. These preparations were suspended in 15 ml of Magnus' bath under load of 0.5 g (papillary muscles) or 1.0 g (right atria). Contraction of papillary muscles upon electric stimulation (1 Hz, 5 msec, 1.5×threshold voltage) and spontaneous contraction of the right atria were recorded through a transducer (manufactured by Orientec, T7-8-240) by a polygraph system (manufactured by NIHONKOHDEN, RMP-6008 and WT-685G).
(§3) Krebs-Henseleit solution was used as nutritive liquid bubbled with mixed gases of 95% O2 with 5% CO2 at 30° C. The value of inotropic effect is a percentage of increment of contractile force by samples when that by isoprotelenol (1×10^-8 M) is considered to be 100%. The value of chronotropic effect is a percentage of atrial rate after the injection of samples when the atrial rate before the injection is considered to be 100%.

right atria = experiment: Pharmacological Test 1: spontaneous contraction of isolated right atria (chronotropic effect); parameters: species or system male Hartley guinea pig; conditions: Cavia porcellus; 3×10^-5 M; percentage of atrial rate after injection, rate before injection = 100%; 30° C.
Procedure: as §1, §2, §3

SMILES | LD50 [1] [mg/kg] | Inotropic Effect [2] [%] | activity at 30 µM (right atria) [%]
O=C1CSC(C2=CCN(CC(O)c3ccc(F)cc3)CC2)=NN1 (stereo not shown) [hydrochloride of compound 35, Hydrochloride of 2-[1-[2-(4-fluorophenyl)-2-hydroxyethyl]-1,2,5,6-tetrahydropyrid-4-yl]-4H,6H-1,3,4-thiadiazin-5-one] | 226 | – | –
Cc1ccc(C(O)CN2CC=C(C3=NNC(=O)CS3)CC2)cc1 (stereo not shown) [hydrochloride of compound 21, Hydrochloride of 2-[1-[2-hydroxy-2-(4-methylphenyl)ethyl]-1,2,5,6-tetrahydropyrid-4-yl]-4H,6H-1,3,4-thiadiazin-5-one] | 226 | – | –
Cc1cccc(C(O)CN2CC=C(C3=NNC(=O)CS3)CC2)c1 (stereo not shown) [hydrochloride of compound 20, Hydrochloride of 2-[1-[2-hydroxy-2-(3-methylphenyl)ethyl]-1,2,5,6-tetrahydropyrid-4-yl]-4H,6H-1,3,4-thiadiazin-5-one] | 173 | – | –
O=C1CNC(C2=CCN(CC(O)c3ccc([N+](=O)[O-])cc3)CC2)=NN1 (stereo not shown) [hydrochloride of compound 60, Hydrochloride of 4,5-dihydro-3-[1-[2-hydroxy-2-(4-nitrophenyl)ethyl]-1,2,5,6-tetrahydropyrid-4-yl]-1,2,4-triazin-6(1H)-one] | 226 | – | –
Cc1ccc(C(O)CN2CC=C(C3=NNC(=O)CS3)CC2)c(C)c1 (stereo not shown) [hydrochloride of compound 25, Hydrochloride of 2-[1-[2-hydroxy-2-(2,4-dimethylphenyl)ethyl]-1,2,5,6-tetrahydropyrid-4-yl]-4H,6H-1,3,4-thiadiazin-5-one] | 135 | – | –
O=C1CSC(C2=CCN(CC(O)c3ccc(Cl)cc3)CC2)=NN1 (stereo not shown) [hydrochloride of compound 13, Hydrochloride of 2-[1-[2-(4-chlorophenyl)-2-hydroxyethyl]-1,2,5,6-tetrahydropyrid-4-yl]-4H,6H-1,3,4-thiadiazin-5-one] | 101 | – | –
O=C1CSC(C2=CCN(CC(O)c3cccc([N+](=O)[O-])c3)CC2)=NN1 (stereo not shown) [hydrochloride of compound 30, Hydrochloride of 2-[1-[2-hydroxy-2-(3-nitrophenyl)ethyl]-1,2,5,6-tetrahydropyrid-4-yl]-4H,6H-1,3,4-thiadiazin-5-one] | 160 | – | –
O=C1CSC(C2=CCN(CC(O)c3ccc([N+](=O)[O-])cc3)CC2)=NN1 (stereo not shown) [Compound 31, 2-[1-[2-Hydroxy-2-(4-nitrophenyl)ethyl]-1,2,5,6-tetrahydropyrid-4-yl]-4H,6H-1,3,4-thiadiazin-5-one] | – | 74.7 | 90.4
Cc1ccc(C(O)CN2CC=C(C3=NNC(=O)CS3)CC2)c(C)c1 (stereo not shown) [Compound 25, 2-[1-[2-Hydroxy-2-(2,4-dimethylphenyl)ethyl]-1,2,5,6-tetrahydropyrid-4-yl]-4H,6H-1,3,4-thiadiazin-5-one] | – | 58.5 | 65.2
O=C1CNC(C2=CCN(CC(O)c3ccc(Cl)cc3)CC2)=NN1 (stereo not shown) [Compound 57, 3-[1-[2-(4-Chlorophenyl)-2-hydroxyethyl]-1,2,5,6-tetrahydropyrid-4-yl]-4,5-dihydro-1,2,4-triazin-6 (1H)-one] | – | 46.8 | 94.9
COc1ccc(OC)c(C(O)CN2CC=C(C3=NNC(=O)CS3)CC2)c1 (stereo not shown) [Compound 8, 2-[1-[2-Hydroxy-2-(2,5-dimethoxyphenyl)ethyl]-1,2,5,6-tetrahydropyrid-4-yl]-4H,6H-1,3,4-thiadiazin-5-one] | – | 50.4 | 89
O=C1CNC(c2ccncc2)=NN1 [d, 4,5-Dihydro-3-(4-pyridyl)-1,2,4-triazin-6(1H)-one, reference compound] | – | 4.6 | 112
O=C1CSC(C2=CCN(CC(O)c3cccc(Cl)c3)CC2)=NN1 (stereo not shown) [Compound 12, 2-[1-[2-(3-Chlorophenyl)-2-hydroxyethyl]-1,2,5,6-tetrahydropyrid-4-yl]-4H,6H-1,3,4-thiadiazin-5-one] | – | 51.0 | 93.8
O=C1NN=C(C2=CCN(CC(O)c3ccc(Cl)cc3)CC2)CS1 (stereo not shown) [Compound 42, 5-[1-[2-(4-Chlorophenyl)-2-hydroxyethyl]-1,2,5,6-tetrahydropyrid-4-yl]-3H,6H-1,3,4-thiadiazin-2-one] | – | 71.0 | 85.9
O=C1CSC(C2=CCN(CC(O)c3cccc(C(F)(F)F)c3)CC2)=NN1 (stereo not shown) [Compound 34, 2-[1-[2-Hydroxy-2-[3-(trifluoromethyl)phenyl]ethyl]-1,2,5,6-tetrahydropyrid-4-yl]-4H,6H-1,3,4-thiadiazin-5-one] | – | 49.9 | 98.1
O=C1CCC(C2=CCN(CC(O)c3ccc(F)cc3)CC2)=NN1 (stereo not shown) [Compound 51, 6-[1-[2-(4-Fluorophenyl)-2-hydroxyethyl]-1,2,5,6-tetrahydropyrid-4-yl]-4,5-dihydropyridazin-3 (2H)-one] | – | 36.8 | 91.4
O=C1NN=C(C2=CCN(CC(O)c3ccccc3)CC2)CS1 (stereo not shown) [Compound 40, 5-[1-(2-Hydroxy-2-phenylethyl)-1,2,5,6-tetrahydropyrid-4-yl]-3H,6H-1,3,4-thiadiazin-2-one] | – | 35.3 | 98.1
O=C1CSC(C2=CCN(CC(O)c3ccc(Cl)c(Cl)c3)CC2)=NN1 (stereo not shown) [Compound 18, 2-[1-[2-(3,4-Dichlorophenyl)-2-hydroxyethyl]-1,2,5,6-tetrahydropyrid-4-yl]-4H,6H-1,3,4-thiadiazin-5-one] | – | 52.2 | 97.8
COc1ccc(C(O)CN2CC=C(C3=NNC(=O)CC3)CC2)cc1 (stereo not shown) [Compound 49, 4,5-Dihydro-6-[1-[2-hydroxy-2-(4-methoxyphenyl)ethyl]-1,2,5,6-tetrahydropyrid-4-yl]pyridazin-3(2H)-one] | – | 27.7 | 87.6
